Source: patent publication US10017534B2, “Method for producing Tebbe complex” (KURARAY CO., LTD., priority 2014, dated 2018)

Assay: Measurement of solubility of Tebbe complex in a solvent (atomic absorption analysis of filtrate)
Conditions: for Solubility of Tebbe complex / Titanium atom contained in filtrate: 25° C.
Protocol: The measurement of the solubility of the Tebbe complex in a solvent was performed in the following manner. That is, 4 mL of a solvent of every kind was added to 1 g of a Tebbe complex obtained in the following Preparation Example 1; a solution after stirring at 25° C. for one hour was filtered with a membrane filter of 0.2 μm; the filtrate was subjected to atomic absorption analysis using the aforementioned polarized Zeeman atomic absorption spectrophotometer; and a titanium atom concentration was measured.
The measurement of the solubility of the Tebbe complex in a solvent was performed in the following manner. That is, 4 mL of a solvent of every kind was added to 1 g of the Tebbe complex obtained in Preparation Example 1; a solution after stirring at 25° C. for one hour was filtered with a membrane filter of 0.2 μm; and the filtrate was subjected to atomic absorption analysis using the aforementioned polarized Zeeman atomic absorption spectrophotometer, thereby measuring a titanium atom concentration.
Using a glove box, 1.0 g of the brownish-red crystal b1 of the Tebbe complex obtained in the method of Preparation Example 1 was weighed in a 20-mL eggplant type flask in an argon atmosphere, and a rotator and 4 mL of dehydrated hexane were added, followed by stirring at 25° C. for one hour. Thereafter, the resultant was allowed to stand and then filtered with a membrane filter of 0.2 μm, and 1.0 g of a filtrate containing the Tebbe complex was subjected to atomic absorption analysis, thereby measuring the solubility of the Tebbe complex.

μ-chloro-μ-methylene-bis(η^5-cyclopentadienyl)titanium dimethylaluminum [Tebbe complex]
Solubility of Tebbe complex (1,4-dioxane): 1.43 mmol/g
Titanium atom contained in filtrate (1,4-dioxane): 6.84 % by mass
Solubility of Tebbe complex (2-hexene): 0.27 mmol/g
Titanium atom contained in filtrate (2-hexene): 1.29 % by mass
Solubility of Tebbe complex (2-methylpentane): 0.21 mmol/g
Titanium atom contained in filtrate (2-methylpentane): 1.01 % by mass
solubility of the Tebbe complex in 1 g of the solvent (aliphatic hydrocarbons of Test Examples 1 to 6, 25° C.): ≤ 0.5 mmol/g
solubility of the Tebbe complex in 1 g of the solvent (aromatic hydrocarbons and ether compounds of Comparative Test Examples 1 to 8, 25° C.): more than 0.5 mmol/g
Solubility of Tebbe complex (benzene): 1.18 mmol/g
Titanium atom contained in filtrate (benzene): 5.65 % by mass
Solubility of Tebbe complex (cyclohexane): 0.45 mmol/g
Titanium atom contained in filtrate (cyclohexane): 2.15 % by mass
Solubility of Tebbe complex (cyclopentyl methyl ether): 1.29 mmol/g
Titanium atom contained in filtrate (cyclopentyl methyl ether): 6.17 % by mass
Solubility of Tebbe complex (diisopropyl ether): 0.60 mmol/g
Titanium atom contained in filtrate (diisopropyl ether): 2.87 % by mass
Solubility of Tebbe complex (dodecane): 0.12 mmol/g
Titanium atom contained in filtrate (dodecane): 0.57 % by mass
Solubility of Tebbe complex (heptane): 0.21 mmol/g
Titanium atom contained in filtrate (heptane): 1.01 % by mass
Solubility of Tebbe complex (hexane): 0.22 mmol/g
Titanium atom contained in filtrate (hexane): 1.05 % by mass
Solubility of Tebbe complex (methylene chloride): 1.49 mmol/g
Titanium atom contained in filtrate (methylene chloride): 7.13 % by mass
Solubility of Tebbe complex (p-xylene): 0.94 mmol/g
Titanium atom contained in filtrate (p-xylene): 4.50 % by mass
Solubility of Tebbe complex (tetrahydrofuran): 1.71 mmol/g
Titanium atom contained in filtrate (tetrahydrofuran): 8.19 % by mass
Solubility of Tebbe complex (toluene): 0.93 mmol/g
Titanium atom contained in filtrate (toluene): 4.45 % by mass
